# From ChEMBL document CHEMBL1154053, “The structure-based design, synthesis, and biological evaluation of DNA-binding amide linked bisintercalating bisanthrapyrazole anticancer compounds” (Bioorg Med Chem, 2009)
# System: K562
# Experiment: Growth inhibition of human K562 cells by MTS method
# Format: functional, cell-based
# Conditions: not given
row,Compound,IC50
1,CN(CCNC(=O)CCCCC(=O)NCCN(C)CCn1nc2c3c(cccc31)C(=O)c1c(Cl)cccc1-2)CCn1nc2c3c(cccc31)C(=O)c1c(Cl)cccc1-2,6.7 µM
2,CN(CCNC(=O)CC(=O)NCCN(C)CCn1nc2c3c(cccc31)C(=O)c1c(Cl)cccc1-2)CCn1nc2c3c(cccc31)C(=O)c1c(Cl)cccc1-2,2.6 µM
3,CN(CCO)CCn1nc2c3c(cccc31)C(=O)c1c(Cl)cccc1-2,3.1 µM
4,CN(CCNC(=O)CCC(=O)NCCN(C)CCn1nc2c3c(cccc31)C(=O)c1c(Cl)cccc1-2)CCn1nc2c3c(cccc31)C(=O)c1c(Cl)cccc1-2,3.5 µM
5,CN(CCNC(=O)CCCCCC(=O)NCCN(C)CCn1nc2c3c(cccc31)C(=O)c1c(Cl)cccc1-2)CCn1nc2c3c(cccc31)C(=O)c1c(Cl)cccc1-2,4.6 µM

# Second part, the compound after the results:
row,IC50,Compound
1,5.7 µM,CN(CCNC(=O)CCCC(=O)NCCN(C)CCn1nc2c3c(cccc31)C(=O)c1c(Cl)cccc1-2)CCn1nc2c3c(cccc31)C(=O)c1c(Cl)cccc1-2
2,3.6 µM,CN(CCN=[N+]=[N-])CCn1nc2c3c(cccc31)C(=O)c1c(Cl)cccc1-2
3,3.6 µM,CN(CCN)CCn1nc2c3c(cccc31)C(=O)c1c(Cl)cccc1-2

# System: Calf thymus DNA
# Experiment: Binding affinity to calf thymus DNA assessed as change in melting temperature at 2 uM by thermal denaturation assay
# Format: nucleic-acid assay
# Conditions: Bos taurus
row,Compound,ΔTm
1,CN(CCNC(=O)CCCCC(=O)NCCN(C)CCn1nc2c3c(cccc31)C(=O)c1c(Cl)cccc1-2)CCn1nc2c3c(cccc31)C(=O)c1c(Cl)cccc1-2,6.8 °C
2,CN(CCNC(=O)CC(=O)NCCN(C)CCn1nc2c3c(cccc31)C(=O)c1c(Cl)cccc1-2)CCn1nc2c3c(cccc31)C(=O)c1c(Cl)cccc1-2,9.6 °C
3,CN(CCO)CCn1nc2c3c(cccc31)C(=O)c1c(Cl)cccc1-2,5.4 °C
4,COc1cccc2c1C(=O)c1c(O)c3c(c(O)c1C2=O)C[C@@](O)(C(=O)CO)C[C@@H]3O[C@H]1C[C@H](N)[C@H](O)[C@H](C)O1,17.8 °C
5,CN(CCNC(=O)CCC(=O)NCCN(C)CCn1nc2c3c(cccc31)C(=O)c1c(Cl)cccc1-2)CCn1nc2c3c(cccc31)C(=O)c1c(Cl)cccc1-2,21.8 °C
6,CN(CCNC(=O)CCCCCC(=O)NCCN(C)CCn1nc2c3c(cccc31)C(=O)c1c(Cl)cccc1-2)CCn1nc2c3c(cccc31)C(=O)c1c(Cl)cccc1-2,4.8 °C

# Results, then the compound that gave them:
row,ΔTm,Compound
1,17.8 °C,CN(CCNC(=O)CCCC(=O)NCCN(C)CCn1nc2c3c(cccc31)C(=O)c1c(Cl)cccc1-2)CCn1nc2c3c(cccc31)C(=O)c1c(Cl)cccc1-2
2,1.1 °C,CN(CCN=[N+]=[N-])CCn1nc2c3c(cccc31)C(=O)c1c(Cl)cccc1-2
3,10.2 °C,CN(CCN)CCn1nc2c3c(cccc31)C(=O)c1c(Cl)cccc1-2

# Molecular target: DNA topoisomerase 2-alpha (Homo sapiens, UniProt P11388)
# Experiment: Inhibition of decatenation activity of human topoisomerase 2alpha
# Conditions: not given
# Sequence of DNA topoisomerase 2-alpha (P11388 whole entry): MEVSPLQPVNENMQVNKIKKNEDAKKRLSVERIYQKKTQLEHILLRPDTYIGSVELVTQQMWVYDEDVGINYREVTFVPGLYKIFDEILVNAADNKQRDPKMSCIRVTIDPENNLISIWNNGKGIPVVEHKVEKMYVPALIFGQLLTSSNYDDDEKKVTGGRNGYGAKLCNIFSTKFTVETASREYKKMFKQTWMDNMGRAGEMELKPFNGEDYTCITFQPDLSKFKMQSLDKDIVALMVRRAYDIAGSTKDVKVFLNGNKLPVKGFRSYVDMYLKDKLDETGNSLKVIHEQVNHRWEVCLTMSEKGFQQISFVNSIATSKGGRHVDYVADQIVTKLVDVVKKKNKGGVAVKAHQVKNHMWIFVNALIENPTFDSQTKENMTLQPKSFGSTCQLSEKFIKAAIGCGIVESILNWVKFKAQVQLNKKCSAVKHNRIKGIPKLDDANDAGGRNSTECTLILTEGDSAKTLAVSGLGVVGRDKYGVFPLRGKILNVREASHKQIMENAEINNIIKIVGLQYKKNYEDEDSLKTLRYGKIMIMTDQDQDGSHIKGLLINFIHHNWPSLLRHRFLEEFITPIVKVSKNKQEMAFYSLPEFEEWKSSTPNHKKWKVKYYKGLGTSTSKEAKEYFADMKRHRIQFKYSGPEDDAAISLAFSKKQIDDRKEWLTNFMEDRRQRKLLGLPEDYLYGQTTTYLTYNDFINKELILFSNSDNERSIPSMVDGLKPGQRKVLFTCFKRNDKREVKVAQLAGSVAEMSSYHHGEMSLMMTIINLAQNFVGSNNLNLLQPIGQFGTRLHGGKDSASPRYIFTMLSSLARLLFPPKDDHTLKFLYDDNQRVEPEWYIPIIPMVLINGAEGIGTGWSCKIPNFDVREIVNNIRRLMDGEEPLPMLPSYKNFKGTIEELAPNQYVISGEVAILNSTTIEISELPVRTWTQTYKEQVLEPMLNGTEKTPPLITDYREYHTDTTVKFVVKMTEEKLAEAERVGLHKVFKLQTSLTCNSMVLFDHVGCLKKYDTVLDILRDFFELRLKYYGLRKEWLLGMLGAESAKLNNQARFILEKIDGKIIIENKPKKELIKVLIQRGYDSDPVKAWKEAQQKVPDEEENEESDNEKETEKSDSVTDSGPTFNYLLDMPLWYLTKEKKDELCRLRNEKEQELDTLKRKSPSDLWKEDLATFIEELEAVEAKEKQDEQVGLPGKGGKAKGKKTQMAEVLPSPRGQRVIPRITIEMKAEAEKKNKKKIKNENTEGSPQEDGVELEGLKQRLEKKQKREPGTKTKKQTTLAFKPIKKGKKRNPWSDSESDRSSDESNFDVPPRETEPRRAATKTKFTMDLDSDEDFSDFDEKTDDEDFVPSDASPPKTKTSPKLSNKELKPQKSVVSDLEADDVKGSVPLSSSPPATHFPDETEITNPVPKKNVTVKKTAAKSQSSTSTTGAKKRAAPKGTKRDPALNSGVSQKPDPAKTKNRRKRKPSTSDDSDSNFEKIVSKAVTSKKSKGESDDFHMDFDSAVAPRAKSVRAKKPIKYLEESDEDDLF
row,Compound,IC50
1,CN(CCNC(=O)CCCCC(=O)NCCN(C)CCn1nc2c3c(cccc31)C(=O)c1c(Cl)cccc1-2)CCn1nc2c3c(cccc31)C(=O)c1c(Cl)cccc1-2,48 µM
2,CN(CCNC(=O)CC(=O)NCCN(C)CCn1nc2c3c(cccc31)C(=O)c1c(Cl)cccc1-2)CCn1nc2c3c(cccc31)C(=O)c1c(Cl)cccc1-2,42 µM
3,CN(CCO)CCn1nc2c3c(cccc31)C(=O)c1c(Cl)cccc1-2,10 µM
4,CN(CCNC(=O)CCC(=O)NCCN(C)CCn1nc2c3c(cccc31)C(=O)c1c(Cl)cccc1-2)CCn1nc2c3c(cccc31)C(=O)c1c(Cl)cccc1-2,7 µM
5,CN(CCNC(=O)CCCCCC(=O)NCCN(C)CCn1nc2c3c(cccc31)C(=O)c1c(Cl)cccc1-2)CCn1nc2c3c(cccc31)C(=O)c1c(Cl)cccc1-2,22 µM

# Now from value to compound:
row,IC50,Compound
1,25 µM,CN(CCNC(=O)CCCC(=O)NCCN(C)CCn1nc2c3c(cccc31)C(=O)c1c(Cl)cccc1-2)CCn1nc2c3c(cccc31)C(=O)c1c(Cl)cccc1-2
2,25 µM,CN(CCN=[N+]=[N-])CCn1nc2c3c(cccc31)C(=O)c1c(Cl)cccc1-2
3,18 µM,CN(CCN)CCn1nc2c3c(cccc31)C(=O)c1c(Cl)cccc1-2

# System: not listed separately
# Experiment: Growth inhibition of human K/VP.5 cells by MTS method
# Format: functional
# Conditions: not given
row,Compound,IC50
1,CN(CCNC(=O)CCCCC(=O)NCCN(C)CCn1nc2c3c(cccc31)C(=O)c1c(Cl)cccc1-2)CCn1nc2c3c(cccc31)C(=O)c1c(Cl)cccc1-2,3.3 µM
2,CN(CCNC(=O)CC(=O)NCCN(C)CCn1nc2c3c(cccc31)C(=O)c1c(Cl)cccc1-2)CCn1nc2c3c(cccc31)C(=O)c1c(Cl)cccc1-2,2 µM
3,CN(CCO)CCn1nc2c3c(cccc31)C(=O)c1c(Cl)cccc1-2,1.9 µM
4,CN(CCN)CCn1nc2c3c(cccc31)C(=O)c1c(Cl)cccc1-2,1.5 µM
5,CN(CCNC(=O)CCC(=O)NCCN(C)CCn1nc2c3c(cccc31)C(=O)c1c(Cl)cccc1-2)CCn1nc2c3c(cccc31)C(=O)c1c(Cl)cccc1-2,1.6 µM
6,CN(CCNC(=O)CCCC(=O)NCCN(C)CCn1nc2c3c(cccc31)C(=O)c1c(Cl)cccc1-2)CCn1nc2c3c(cccc31)C(=O)c1c(Cl)cccc1-2,2.3 µM
7,CN(CCNC(=O)CCCCCC(=O)NCCN(C)CCn1nc2c3c(cccc31)C(=O)c1c(Cl)cccc1-2)CCn1nc2c3c(cccc31)C(=O)c1c(Cl)cccc1-2,2.5 µM

# System: K562
# Experiment: Resistance factor, ratio of IC50 for human K/VP.5 cells to IC50 for human K562 cells
# Format: functional
# Conditions: not given
row,Compound,Ratio IC50
1,CN(CCNC(=O)CCCCC(=O)NCCN(C)CCn1nc2c3c(cccc31)C(=O)c1c(Cl)cccc1-2)CCn1nc2c3c(cccc31)C(=O)c1c(Cl)cccc1-2,0.48
2,CN(CCNC(=O)CC(=O)NCCN(C)CCn1nc2c3c(cccc31)C(=O)c1c(Cl)cccc1-2)CCn1nc2c3c(cccc31)C(=O)c1c(Cl)cccc1-2,0.77
3,CN(CCO)CCn1nc2c3c(cccc31)C(=O)c1c(Cl)cccc1-2,0.63
4,CN(CCN)CCn1nc2c3c(cccc31)C(=O)c1c(Cl)cccc1-2,0.43
5,CN(CCNC(=O)CCC(=O)NCCN(C)CCn1nc2c3c(cccc31)C(=O)c1c(Cl)cccc1-2)CCn1nc2c3c(cccc31)C(=O)c1c(Cl)cccc1-2,0.44
6,CN(CCNC(=O)CCCC(=O)NCCN(C)CCn1nc2c3c(cccc31)C(=O)c1c(Cl)cccc1-2)CCn1nc2c3c(cccc31)C(=O)c1c(Cl)cccc1-2,0.39
7,CN(CCNC(=O)CCCCCC(=O)NCCN(C)CCn1nc2c3c(cccc31)C(=O)c1c(Cl)cccc1-2)CCn1nc2c3c(cccc31)C(=O)c1c(Cl)cccc1-2,0.55
